From ChEMBL document CHEMBL3886334, “Fragment ligated inhibitors selective for the polo box domain of PLK1” (2015) come the findings set out here.

Usually IC50 stands for the point on the concentration scale where inhibition reaches its midpoint. A high value points to lower potency.

In the assay the target is Serine/threonine-protein kinase PLK1 (Homo sapiens, UniProt P53350). The assay is described as follows: Fluorescent Polarization Binding Assay: The buffer composition was 50 mM Tris, 200 mM NaCl, 2.0 mM DTT, and 0.005% Tween 20 (pH 8.0). Fragment ligated inhibitors and comparison peptides to be tested in the binding assay were dissolved in dimethyl sulfoxide (DMSO) to a concentration of 10 mM, compounds were utilized in a range of concentrations from 10 nM to 600 μM. The PLK1 PBD protein (residues ….
Chain of Serine/threonine-protein kinase PLK1 (P53350 whole entry, the tested form may be a part): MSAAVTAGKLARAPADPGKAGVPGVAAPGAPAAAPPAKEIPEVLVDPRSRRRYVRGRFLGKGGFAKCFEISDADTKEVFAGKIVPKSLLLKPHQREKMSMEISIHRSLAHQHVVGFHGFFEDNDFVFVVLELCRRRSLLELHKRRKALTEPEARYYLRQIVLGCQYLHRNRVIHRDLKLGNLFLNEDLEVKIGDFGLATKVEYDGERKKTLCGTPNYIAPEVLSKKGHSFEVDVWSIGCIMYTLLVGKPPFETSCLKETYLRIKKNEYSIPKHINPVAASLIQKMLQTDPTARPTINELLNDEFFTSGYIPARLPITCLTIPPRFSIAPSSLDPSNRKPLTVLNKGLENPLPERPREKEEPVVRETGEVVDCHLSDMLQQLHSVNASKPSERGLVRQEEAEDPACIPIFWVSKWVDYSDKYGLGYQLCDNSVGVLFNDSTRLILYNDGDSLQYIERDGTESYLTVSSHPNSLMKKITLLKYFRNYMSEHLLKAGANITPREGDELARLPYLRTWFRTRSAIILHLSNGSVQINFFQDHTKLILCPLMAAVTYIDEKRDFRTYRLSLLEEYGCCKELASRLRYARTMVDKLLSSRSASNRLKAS
`CNC(=O)CSc1ncnc2sc(C)cc12` came in with an IC50 of 475 µM.
The same measure for `CNC(=O)c1ccc(-c2noc(C)n2)cc1`: 320 µM.
The figure for `CNC(=O)c1ccc(NC)cc1` is 31.2 µM.
Turning to `CCCNc1ccc(C(=O)NC)cc1`, the IC50 was 16.5 µM.
In turn, `CCc1ccc(C(=O)NC)cc1` registered a 50% inhibitory concentration (IC50) of 16.5 µM.
In the case of `CCOc1ccc(C(=O)NC)cc1`, the half-maximal inhibitory concentration (IC50) amounted to 64.7 µM.
The figure for `CCCCc1ccc(C(=O)NC)cc1` is 8.6 µM; for `CCCc1ccc(C(=O)NC)cc1` it is 10.8 µM.
The same measure for `CCCOc1ccc(C(=O)NC)cc1`: 29.5 µM; for `CNC(=O)c1cc(-c2ccccc2)c(C(F)(F)F)s1`: 500 µM; for `CNC(=O)c1cc(OC)c2c(c1)OCCO2`: 300 µM.
The figure for `CNC(=O)c1ccc(OC)c2ccccc12` is 99 µM; for `CNC(=O)c1ccc(OC)cc1` it is 125 µM; for `CNC(=O)c1cn(S(=O)(=O)c2ccccc2)c2ccccc12` it is 375 µM.
`CNC(=O)c1ccc2ncccc2c1` showed an IC50 of 400 µM.
Molecule `CNC(=O)c1ccc(SC)cc1` gave a half-maximal inhibitory concentration (IC50) of 18.5 µM.
The figure for `CNC(=O)Cn1cc(-c2ccc(C)cc2)ncc1=O` is 250 µM; for `CNC(=O)c1sc(C(F)(F)F)c(-c2ccccc2)c1N` it is above 600 µM.
The figure for `CNC(=O)c1cccc2ccccc12` is 104 µM.
The same measure for `CNC(=O)c1cc(-c2cccc(OC)c2)n[nH]1`: 380 µM; for `CNC(=O)CN1C(=O)COc2ccc(C)cc21`: 350 µM.
`CNC(=O)c1cc(-c2ccccc2)n(-c2ccccc2)c1C` showed a 50% inhibitory concentration (IC50) of 600 µM.
